This is an account of results in patent US10160762B2, “6-alkyl dihydropyrazolopyrimidinone compounds as PDE2 inhibitors” (Merck Sharp & Dohme Corp., priority 2015, dated 2018).

Each structure is given as a SMILES string.

For orientation: Ki means a measure of affinity in units of concentration, obtained from inhibition or displacement.

The assay addresses T1, human PDE2A1 (Homo sapiens, UniProt O00408).
T1 construct: GST; purchased BPS Bioscience (San Diego, Calif.) 60020; host or cells: insect cells
Briefly: IMAP FP PDE assay, human PDE2A1. Format: biochemical. As to conditions: Lab B; read-out: Human PDE2 Ki (nM) Lab B. As for the experimental part: Selectivity for PDE2, as compared to other PDE families, was assessed using the IMAP® technology. Human PDE10A2 enzyme was prepared from cytosolic fractions of transiently transfected HEK cells. All other PDE's were GST Tag human enzyme expressed in insect cells and were obtained from BPS Bioscience (San Diego, Calif.): PDE1A (Cat#60010), human PDE2A1 (Cat#60020), PDE3A (Cat#60030), PDE4A1A (Cat#60040), PDE5A1 (Cat#60050), PDE6C (Cat#60060), PDE7A (Cat#60070), PDE8A1 (Cat#60080), PDE9A2 (Cat#60090), PDE11A4 (Cat#60110).
Assays for PDE 1 through 11 were performed in parallel at room temperature in 384-well microtiter plates with an incubation volume of 20.2 μL. Solutions of test compounds were prepared in DMSO and serially diluted with DMSO to yield 30 μL of each of ten solutions differing by 3-fold in concentration, at 32 serial dilutions per plate. […] A Labcyte POD 810 (Labcyte, Sunnyvale, Calif.) was used to dispense 200 nL from each well of the titration plate to make eleven copies of the assay plate for each titration, one copy for each PDE enzyme. A solution of each enzyme (dilution from aliquots, sufficient to produce 20% substrate conversion) and a separate solution of FAM-labeled cAMP or FAM-labeled cGMP from Molecular Devices (Sunnyvale, Calif., product # R7506 or cGMP#R7508), at a final concentration of 50 nM were made in the assay buffer (10 mM Tris HCl, pH 7.2, 10 mM MgCl2, 0.05% NaN3 0.01% Tween-20, and 1 mM DTT). Note that the substrate for PDE2 is 50 nM FAM cAMP containing 1000 nM of cGMP. The enzyme and the substrate were then added to the assay plates in two consecutive additions of 10 μL and then shaken to mix. The reaction was allowed to proceed at room temperature for 60 minutes. A binding solution was then made from the kit components, comprised of 80% Solution A, 20% Solution B and binding reagent at a volume of 1/600 the total binding solution. The enzymatic reaction was stopped by addition of 60 μL of the binding solution to each well of the assay plate. The plates were sealed and shaken for 10 seconds. The plates were incubated at room temperature for one hour, then the parallel and perpendicular fluorescence was measured using a Tecan Genios Pro plate reader (Tecan, Switzerland). The apparent inhibition constants for the compounds against all 11 PDE's was determined from the parallel and perpendicular fluorescent readings as described for PDE10 FP assay using the following apparent KM values for each enzyme and substrate combination: PDE1A (FAM cGMP) 70 nM, human PDE2A1 (FAM cAMP) 10,000 nM, PDE3A (FAM cAMP) 50 nM, PDE4A1A (FAM cAMP) 1500 nM, PDE5A1 (FAM cGMP) 400 nM, PDE6C (FAM cGMP) 700 nM, PDE7A (FAM cAMP) 150 nM, PDE8A1 (FAM cAMP) 50 nM, PDE9A2 (FAM cGMP) 60 nM, PDE10A2 (FAM cAMP) 150 nM, PDE11A4 (FAM cAMP) 1000 nM. The intrinsic PDE2 inhibitory activity of a compound which may be used in accordance with the present invention may be determined by these assays.

T1 sequence (O00408 1-920 isoform O00408-2): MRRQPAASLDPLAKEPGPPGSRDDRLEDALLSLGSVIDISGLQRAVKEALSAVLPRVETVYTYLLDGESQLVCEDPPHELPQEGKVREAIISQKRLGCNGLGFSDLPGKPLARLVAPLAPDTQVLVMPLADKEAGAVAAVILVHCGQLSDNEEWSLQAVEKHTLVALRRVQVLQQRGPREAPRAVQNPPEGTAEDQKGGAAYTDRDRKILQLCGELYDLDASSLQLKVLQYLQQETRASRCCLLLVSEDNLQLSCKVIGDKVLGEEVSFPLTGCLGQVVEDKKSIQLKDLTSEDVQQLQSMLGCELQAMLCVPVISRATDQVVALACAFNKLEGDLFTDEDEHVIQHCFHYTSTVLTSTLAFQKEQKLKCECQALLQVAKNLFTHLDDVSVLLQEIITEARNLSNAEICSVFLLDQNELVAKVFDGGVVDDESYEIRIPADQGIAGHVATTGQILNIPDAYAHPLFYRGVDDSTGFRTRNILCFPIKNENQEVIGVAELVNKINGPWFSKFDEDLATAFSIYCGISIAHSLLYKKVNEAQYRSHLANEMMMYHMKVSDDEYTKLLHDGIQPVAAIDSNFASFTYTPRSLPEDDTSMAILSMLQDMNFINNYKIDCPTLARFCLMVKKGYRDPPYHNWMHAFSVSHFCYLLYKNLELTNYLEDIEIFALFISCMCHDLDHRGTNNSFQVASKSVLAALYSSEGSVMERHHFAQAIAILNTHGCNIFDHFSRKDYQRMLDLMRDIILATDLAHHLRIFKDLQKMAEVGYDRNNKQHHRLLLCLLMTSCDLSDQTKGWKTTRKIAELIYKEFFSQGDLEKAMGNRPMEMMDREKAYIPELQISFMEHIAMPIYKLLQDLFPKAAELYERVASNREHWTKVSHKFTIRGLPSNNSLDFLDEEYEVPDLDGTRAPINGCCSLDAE

Turning to `Cc1nc2c(c(-c3nnco3)nn2C(C)c2ccc(C(F)(F)F)cc2)c(=O)[nH]1` (single isomer, unassigned) [Example 263], the Ki was 0.88 nM.
Under `CC(=O)NCc1nn(C(C)c2ccc(C(F)(F)F)cc2)c2nc(C)[nH]c(=O)c12` (single isomer, unassigned) [Example 276] stands roughly 1520 nM; under `Cc1nc2c(c(C(F)F)nn2C(C)c2ccc(C(F)(F)F)cc2F)c(=O)[nH]1` (single isomer, unassigned) [Example 186, (S)- or (R)-3-(Difluoro-methyl)-1-(1-(2-fluoro-4-(trifluoromethyl)phenyl)ethyl)-6-methyl-1H-pyrazolo[3,4-d]pyrimidin-4(5H)-one], 0.63 nM.
Under `COc1cccc(Cc2nc3c(c(-c4nnco4)nn3C(C)c3ccc(C(F)(F)F)cc3)c(=O)[nH]2)c1` (single isomer, unassigned) [Example 345, (S)- or (R)-6-(3-Methoxybenzyl)-3-(1,3,4-oxadiazol-2-yl)-1-(1-(4-(trifluoromethyl)phenyl)ethyl)-1,5-dihydro-4H-pyrazolo[3,4-d] pyrimidin-4-one] stands 0.15 nM; under `Cc1nc2c(c(CF)nn2C(c2ccc(C(F)(F)F)c(F)c2)C2CC2)c(=O)[nH]1` (single isomer, unassigned) [Example 227, (S)- or (R)-1-(Cyclopropyl(3-fluoro-4-(trifluoromethyl)phenyl)methyl)-3-(fluoromethyl)-6-methyl-1,5-dihydro-4H-pyrazolo[3,4-d]pyrimidin-4-one], 32 nM; under `COCC(c1ccc(C(F)(F)F)cc1)n1nc(CO)c2c(=O)[nH]c(C)nc21` (single isomer, unassigned) [Example 100, (R)- or (S)-3-(Hydroxymethyl)-1-(2-methoxy-1-(4-(trifluoromethyl)phenyl)ethyl)-6-methyl-1H-pyrazolo[3,4-d]pyrimidin-4(5H)-one], roughly 1670 nM.
Under `CCc1nc2c(c(C(F)F)nn2C(C)c2ccc(C(F)(F)F)cc2)c(=O)[nH]1` (single isomer, unassigned) [Example 190, (S)- or (R)-3-(Difluoromethyl)-6-ethyl-1-(1-(4-(trifluoromethyl)-phenyl)ethyl)-1,5-dihydro-4H-pyrazolo[3,4-d]pyrimidin-4-one] stands 2.7 nM; under `COCc1nc2c(c(C(F)F)nn2C(C)c2ccc(C(F)(F)F)cc2)c(=O)[nH]1` (single isomer, unassigned) [Example 188, (S)- or (R)-3-(Difluoro-methyl)-6-(methoxymethyl)-1-{1-[4-(trifluoromethyl)phenyl]ethyl}-1,5-dihydro-4H-pyrazolo-[3,4-d]pyrimidin-4-one], 2.6 nM; under `CC(c1ccc(C(F)(F)F)cc1)n1nc(CO)c2c(=O)[nH]c(C3CCCO3)nc21` (single isomer, unassigned) [Example 311, (R,R)- or (S,S)- or (R,S)- or (S,R)-3-(Hydroxymethyl)-6-(tetrahydrofuran-2-yl)-1-(1-(4-(trifluoromethyl)-phenyl)ethyl)-1,5-dihydro-4H-pyrazolo[3,4-d]pyrimidin-4-one], roughly 1210 nM.
For the compound `Cc1nc2c(c(CO)nn2C(C)c2ccc(C(F)(F)F)cn2)c(=O)[nH]1` (single isomer, unassigned) [Example 152, (S)- or (R)-3-(Hydroxymethyl)-6-methyl-1-(1-(5-(trifluoromethyl)pyridin-2-yl)ethyl)-1H-pyrazolo[3,4-d]pyrimidin-4(5H)-one], the Ki is 1180 nM.
In the case of `COc1cccc(Cc2nc3c(c(C#N)nn3C(C)c3ccc(C(F)(F)F)cc3)c(=O)[nH]2)c1` (single isomer, unassigned) [Example 349] it was 373 nM; in that of `Cc1nc2c(c(CO)nn2C(C)c2ccc(C(F)(F)F)cc2C)c(=O)[nH]1` (single isomer, unassigned) [Example 109, (S)- or (R)-3-(Hydroxymethyl)-6-methyl-1-(1-(2-methyl-4-(trifluoromethyl)phenyl)ethyl)-1H-pyrazolo[3,4-d]pyrimidin-4(5H)-one], 1.9 nM.
Under `Cc1nc2c(c(CF)nn2C(c2ccc(OC(F)(F)F)cc2)C2CC2)c(=O)[nH]1` (single isomer, unassigned) [Example 225, (S)- or (R)-1-(Cyclopropyl(4-(trifluoromethoxy)phenyl)methyl)-3-(fluoromethyl)-6-methyl-1,5-dihydro-4H-pyrazolo[3,4-d]pyrimidin-4-one] stands 4.6 nM; under `CC(c1ccc(C(F)(F)F)cc1)n1nc(CO)c2c(=O)[nH]c(CC3CCCC3)nc21` (single isomer, unassigned) [Example 307, (R)- or (S)-6-(Cyclopentyl-methyl)-3-(hydroxymethyl)-1-(1-(4-(trifluoromethyl)-phenyl)ethyl)-1,5-dihydro-4H-pyrazolo[3,4-d]pyrimidin-4-one], 13 nM.
Under `Cc1nc2c(c(CO)nn2C(C)c2ccc(C(F)F)cc2)c(=O)[nH]1` (single isomer, unassigned) [Example 111, (S)- or (R)-1-(1-(4-(Difluoromethyl)phenyl)ethyl)-3-(hydroxymethyl)-6-methyl-1H-pyrazolo[3,4-d]pyrimidin-4(5H)-one] stands 3.2 nM.
Turning to `Cc1nc2c(c(N)nn2C(C)c2ccc(C(F)(F)F)cc2)c(=O)[nH]1` (centres unmarked) [Example 258, 3-Amino-6-methyl-1-(1-(4-(trifluoromethyl)phenyl)ethyl)-H-pyrazolo[3,4-d]pyrimidin-4(5H)-one], the Ki amounted to 42 nM.
Under `Cc1nc2c(c(C(F)F)nn2C(C)c2ccc(C(F)(F)F)nc2)c(=O)[nH]1` (single isomer, unassigned) [Example 195] stands roughly 1670 nM.
Under `Cc1nc2c(c(CO)nn2C(C)c2ccc(OC(F)F)cc2)c(=O)[nH]1` (single isomer, unassigned) [Example 20, (R)- or (S)-1-(1-(4-(Difluoromethoxy)phenyl)ethyl)-3-(hydroxymethyl)-6-methyl-1H-pyrazolo[3,4-d]pyrimidin-4(5H)-one] stands 305 nM.
Under `Cc1nc2c(c(C(F)F)nn2C(c2ccc(C(F)(F)F)cc2)C(C)C)c(=O)[nH]1` (single isomer, unassigned) [Example 171, (R)- or (S)-3-(Difluoromethyl)-6-methyl-1-(2-methyl-1-(4-(trifluoromethyl)phenyl)propyl)-1H-pyrazolo[3,4-d] pyrimidin-4(5H)-one] stands 43 nM.
Take `Cc1nc2c(c(CO)nn2C(C)c2ccc(C3(C(F)(F)F)CC3)cc2)c(=O)[nH]1` (single isomer, unassigned) [Example 81]: the Ki came to 7.7 nM.
Under `COCC(c1ccc(C(F)(F)F)cc1)n1nc(CO)c2c(=O)[nH]c(C)nc21` (single isomer, unassigned) [Example 101, (S)- or (R)-3-(Hydroxymethyl)-1-(2-methoxy-1-(4-(trifluoromethyl)phenyl)ethyl)-6-methyl-1H-pyrazolo[3,4-d]pyrimidin-4(5H)-one] stands 13 nM; under `Cc1nc2c(c(C(=O)N(C)C)nn2C(C)c2ccc(C(F)(F)F)cc2)c(=O)[nH]1` (single isomer, unassigned) [Example 267, (S)- or (R)-N,N,6-Trimethyl-4-oxo-1-(1-(4-(trifluoromethyl)phenyl)ethyl)-4,5-dihydro-1H-pyrazolo[3,4-d]pyrimidine-3-carboxamide], greater than 2960 nM; under `Cc1nc2c(c(O)nn2[C@@H](C)c2ccc(C(F)(F)F)cc2)c(=O)[nH]1` [Example 329, (S)-3-Hydroxy-6-methyl-1-(1-(4-(trifluoromethyl)phenyl)ethyl)-1,5-dihydro-4H-pyrazolo[3,4-d]pyrimidin-4-one], 2080 nM.
